Target: hERG1a/1b current (Homo sapiens, UniProt Q12809)
Description: All working solutions were sterile-filtered, stored at −20 °C and thawed to room temperature before use.
Prior to electrophysiology study, the HEK293-hERG1a/1b cells were first grown in complete medium without selection antibiotics for 6 days. Approximately 5.0 × 10^5 cells were then plated onto an uncoated 96-mm cell culture dish for a maximum of 3 days. […] The cell suspension was then transferred into a 15-ml polypropylene tube and centrifuged at 100 × g for 3 min. Subsequently, the cell pellet was resuspended in extracellular solution to obtain a final density of 2 × 10^6–3 × 10^6 cells/ml and incubated on ice for 20 min to allow cell recovery. The electrophysiology studies were performed using NPC®-1 chips (Nanion Technologies, Germany) and Port-a-Patch system (Nanion Technologies, Germany) following manufacturer’s instructions, within the next 2 h. For characterization and determination of the hERG1a/1b current inhibition, a series of voltage protocols were applied as published previously.
The hERG1a/1b current was recorded in cells achieving whole-cell configuration. Briefly, a single cell was first held at −80 mV, the theoretical cardiac resting membrane potential, on the aperture of the NPC-1 chip (Nanion Technologies, Germany). To characterize the I-V relationship, the cell was depolarized to test potentials ranging from −60 mV to +50 mV for 4 s in […], followed by a 5-s step to −50 mV before returning to −80mV.
To determine the pharmacological effects of the HEK293-hERG1a/1b cells, the cells were perfused with test compound solutions using an external perfusion system. […] The mean of six successive Itail was recorded for each test concentration. Four independent experiments were conducted to derive the dose-response curve.

For `CNCCC(Oc1ccc(C(F)(F)F)cc1)c1ccccc1` (stereo not shown) [fluoxetine, reference compound], the “Hill coefficient (h)” value was 1.19.
